In patent publication EP0170430A1, “Heterocyclic pharmaceutical compounds, preparation and use” (THE WELLCOME FOUNDATION LIMITED, priority 1984, dated 1986):
Where a name gives a salt, the structure may show the parent alone.

Legend:
[1] = test system: tetrabenazine induced sedation; experiment: Antitetrabenazine test (prevention of tetrabenazine induced sedation); format: in vivo; conditions: Mus musculus; CD1 male mice; compound ip 30 min before tetrabenazine hydrochloride ip; exploratory behavior scored 30 min later; amount required to reverse the tetrabenazine effects in 50 percent of the animals
Method: Prevention of tetrabenazine induced sedation was measured using a modification of the method of Vernier, et al., First Hahnemann Symposium on Psychosomatic Medicine, ed. Nodim and Moyer, pub. Lea and Febiger, Philadelphia, 1962.
Mice, three groups of 12 CD1 males each, were injected intraperitoneally (ip) with a solution of compound (IA) or compound (IB) or with a saline solution alone. Thirty minutes later each of the mice was injected (ip, 35 mg/kg) with a solution containing tetrabenazine hydrochloride. Thirty minutes after the injection of tetrabenazine each mouse was examined for its level of exploratory behavior which was scored on a modification of the arbitrary scale defined by Vernier, et. al. The results reported in Table as the ED50 values are the amounts of the test compounds required to reverse the tetrabenazine effects in 50 percent of the animals tested.

Acute toxicity (LD50) = conditions: in vivo, ip, in the mouse, calculated as the hydrochloride salt

| SMILES | ED50 [1] [mg/kg] | LD50 (Acute toxicity (LD50)) [mg/kg] |
| --- | --- | --- |
| C[C@@H]1NC(C)(C)CO[C@@]1(O)c1ccccc1 (relative stereo) [IA, cis-3,5,5-Trimethyl-2-phenyl-2-morpholinol hydrochloride] | 18 | ~160 |
| C[C@@H]1NC(C)(C)CO[C@@]1(O)c1ccc(F)cc1 (relative stereo) [IB, cis-2-(4-Fluorophenyl)-3,5,5-trimethyl-2-morpholinol hydrochloride] | 14 | ~160 |
